Data taken from patent US12527833B2, “Pharmaceutical composition made from hydrophobic phytochemicals dispersed in sesame oil to enhance bioactivity” (ARJUNA NATURAL PVT. LTD., priority 2017, dated 2026).

What was measured:
[1] = tested on: Carrageenan induced paw edema; assay: Carrageenan paw edema in rats: blends of Boswellia extract with edible oils (Example 7); type: in vivo
Protocol: The animals were housed in polypropylene cages and maintained under standard animal house conditions (12:12 hour light/dark cycle at 24±2° C. and 45-65% relative humidity). The rats had free access to standard pellet diet and water. 24 rats were divided into 8 groups comprising of 3 rats in each group. The rats were deprived of food, but had free access to drinking water for 12 h prior to the experiment. The treatment was as follows: After 12 hour fasting, baseline paw volume was recorded for each rat using digital plethysmometer (Ugo Basile, […]). Carrageenan (0.1 ml of 1%) in saline (0.9% NaCl) was injected into the plantar surface of the right hind paw of the animals. The experimental groups were given the designated extract/standard orally, 30 minutes prior to the injection of the carrageenan. After injection of carrageenan, paw volume was recorded at 3 hr. to 6 hr. post carrageenan. The edema was expressed as an increase in the volume of paw from baseline value, and the percentage of inhibition for each rat was calculated. Each composition of boswellia was obtained through standard mixing of boswellia extract with vegetable oil. • Group 1: 10 mg/Kg Diclofenac. • Group 2: 82 mg/Kg Hydrophobic blend of Boswellia extract (10% AKBA) with sesame oil (2:3). • Group 3: 82 mg/Kg Hydrophobic Boswellia extract (10% AKBA) with coconut oil (2:3). • Group 4: 82 mg/Kg Hydrophobic Boswellia extract (10% AKBA) with olive oil (2:3). • Group 5: 82 mg/Kg Hydrophobic Boswellia extract (10% AKBA) with rice bran (2:3). • Group 6: 82 mg/Kg Hydrophobic Boswellia extract (10% AKBA) with Cotton seed oil (2:3). • Group 7: 82 mg/Kg Hydrophobic Boswellia extract (10% AKBA) with Boswellia fat (2:3). • Group 8: 50 mg/Kg Homogenized dispersion hydrophobic Boswellia extract with 10% AKBA with sesame oil with 10% sesame lignans. (BS-4).

[2] = tested on: Carrageenan induced paw edema; assay: Carrageenan paw edema in rats: different ratios of Boswellia and sesame oil (Example 10); type: in vivo
Protocol: The animals were housed in polypropylene cages and maintained under standard animal house conditions (12:12 hour light/dark cycle at 24±2° C. and 45-65% relative humidity). The rats had free access to standard pellet diet and water. 27 rats were divided into 9 groups comprising of 3 rats in each group. The rats were deprived of food, but had free access to drinking water for 12 h prior to the experiment. The treatment was as follows: After 12 hour fasting, baseline paw volume was recorded for each rat using digital plethysmometer (Ugo Basile, […]). Carrageenan (0.1 ml of 1%) in saline (0.9% NaCl) was injected into the plantar surface of the right hind paw of the animals. The experimental groups were given the designated extract/standard orally, 30 minutes prior to the injection of the carrageenan. After injection of carrageenan, paw volume was recorded at 3 hr to 6 hr post carrageenan. The edema was expressed as an increase in the volume of paw from baseline value, and the percentage of inhibition for each rat was calculated. Different compositions of sesame oil with boswellia was tested to find out the optimum ratio with enhanced activity. Each composition of boswellia has undergone a regress milling and grinding resulting in SSA of greater than 1.2×10^3 m^2/kg. • Group 1: 50 mg/Kg AKBA10+Sesame oil (2:3). • Group 2: 50 mg/Kg, AKBA10+Sesame oil (5:7) • Group 3: 50 mg/Kg AKBA10+Sesame oil (9:11) • Group 4: 50 mg/Kg AKBA10+Sesame oil (1:3) • Group 5: 50 mg/Kg AKBA10+Sesame oil (1:5) • Group 6: 50 mg/Kg AKBA10+Sesame oil (1:9) • Group 7: 50 mg/Kg AKBA10+Sesame oil (1:1) • Group 8: 50 mg/Kg AKBA10+Sesame oil • Group 9: 10 mg/Kg Diclofenac

## O=C(O)Cc1ccccc1Nc1c(Cl)cccc1Cl [Diclofenac]
[1]; average of 3HR and 6HR, doses as in table
  Avrage percentage inhibition: 68.3%
[1]; paw edema 3 hr post carrageenan, oral 30 min before, Diclofenac 10, oil blends 82, BS-4 50 mg/kg
  Percentage inhibition (%) 3HR: 66.67%
[1]; paw edema 6 hr post carrageenan, oral 30 min before, Diclofenac 10, oil blends 82, BS-4 50 mg/kg
  Percentage inhibition (%) 6HR: 69.94%
[2]; 3 hr post carrageenan, oral, AKBA10+sesame oil 50 mg/Kg, SSA >1.2×10^3 m^2/kg, Diclofenac 10 mg/kg
  Percentage inhibition (%) 3HR: 66%
[2]; 6 hr post carrageenan, oral, AKBA10+sesame oil 50 mg/Kg, Diclofenac 10 mg/kg
  Percentage inhibition (%) 6HR: 98%
[2]; average of 3HR and 6HR
  Average percentage inhibition: 82%
